Data published in PMC4267739, “Functional Characterization of Corynebacterium glutamicum Mycothiol S-Conjugate Amidase” (PLoS ONE, 2014).
≈ marks a conversion by molar mass, not a printed value.

What was measured:
[1] = test system: T1, Corynebacterium glutamicum WT(pXMJ19); test: microbe, parasite or virus in culture; design: species or system Corynebacterium glutamicum RES167 (pXMJ19); Broth dilution MIC in LB at 30 °C, serial 2-fold dilution, growth checked after 1 to 2 days; details: LB, 30 °C, wild type with empty vector pXMJ19; for MIC: Corynebacterium glutamicum, read-out: MIC (µg ml^−1) / WT(pXMJ19)
T1 construct: RES167 wild type carrying empty vector pXMJ19
Protocol: Disk diffusion assays were performed for antibiotics, alkylating agents, and oxidative agents according to Rawat et al.. Briefly, cells were grown to the mid-log phase and a lawn of cells was plated onto LB plates. After the paper disks were placed into the plates, various amounts of agents (10 µl) were added to the disk. The disks were allowed to dry and the plates were incubated for 2 to 3 days. For the minimal broth dilution assay, antibiotics were serially diluted (0.5×) in LB medium (1 ml) and cells (A 600 = 1.6) were inoculated. After 1 to 2 days of incubation at 30°C, the tubes were checked for growth. The bacteriostasis growth curve assay was used to determine the sensitivity of C. glutamicum to heavy metal stress. LB-grown strains (50 µl) were transferred to LB broth (5 ml), with and without addition of various concentrations of heavy metals (Cd^2+, Ni^2+, Cr^2+ and Cu^2+) and incubated at 30°C. The cellular growth was monitored turbidimetrically (A 600) after 24 h. All assays were performed in triplicate. First, sensitivity of C. glutamicum strains to Macrolides and β-Lactams was tested. […] These observations indicate that the Mca-dependent detoxification pathway indeed plays a major role in the detoxification of rifamycin S. However, no significant difference was found in the size of growth inhibition zones around erythromycin, lincomycin and spectinomycin (all belong to […]) between WT(pXMJ19), Δmca(pXMJ19) and the complementary strain Δmca(pXMJ19-mca) (Table 3; p>0.05). Similar trend was obtained in the MIC data (Table 4). […] Bacterial strains used in this study are listed in S1 Table. Escherichia coli and C. glutamicum strains were routinely cultured in Luria-Bertani (LB) broth or on LB plates at 37°C and 30°C, respectively. For generation of mutants and maintenance of C. glutamicum, brain heart infusion broth with 0.5 M sorbitol (BHIS) was used. The C. glutamicum RES167 strain was the parent of all derivatives used in this study. In-frame deletions were generated by the method as described previously. Cell growth was monitored by measuring absorbance at 600 nm (A 600). Antibiotics were added at the following concentrations: kanamycin, 50 µg ml^−1 for E. coli and 25 µg ml^−1 for C. glutamicum; nalidixic acid, 40 µg ml^−1 for C. glutamicum; chloramphenicol, 20 µg ml^−1 for E. coli and 10 µg ml^−1 for C. glutamicum.

[2] = test system: CC(=O)N[C@@H](CSCc1c(C)c(=O)n2c(=O)c(C)c(C)n12)C(=O)N[C@H]1[C@@H](O[C@@H]2[C@H](O)[C@H](O)[C@@H](O)[C@H](O)[C@H]2O)O[C@H](CO)[C@@H](O)[C@@H]1O; test: purified protein; details: amidase activity, 10 µM enzyme, 0-10 mM MSmB, 50 mM HEPES pH 7.5, 37°C, Table 6 prints 92.34±1.5 mM and kcat unit min^-1
Source text: fluorescamine assay of released amine, Eadie-Hofstee on C. glutamicum Mca (mycothiol S-conjugate amidase; His6-Mca)

Compound	MIC [1] [µg/mL]	other results
CN[C@H](CC(C)C)C(=O)N[C@H]1C(=O)N[C@@H](CC(N)=O)C(=O)N[C@H]2C(=O)N[C@H]3C(=O)N[C@H](C(=O)N[C@H](C(=O)O)c4cc(O)cc(O)c4-c4cc3ccc4O)[C@H](O)c3ccc(c(Cl)c3)Oc3cc2cc(c3O[C@@H]2O[C@H](CO)[C@@H](O)[C@H](O)[C@H]2O[C@H]2C[C@](C)(N)[C@H](O)[C@H](C)O2)Oc2ccc(cc2Cl)[C@H]1O [Vancomycin]	32 (≈ 22.1 µM)	–
CN[C@@H]1[C@H](O)[C@H](NC)[C@H]2O[C@@]3(O)C(=O)C[C@@H](C)O[C@H]3O[C@@H]2[C@H]1O [Spectinomycin]	128 (≈ 385 µM)	–
O=C(O)c1cn(C2CC2)c2cc(N3CCNCC3)c(F)cc2c1=O [Ciprofloxacin]	1.56 (≈ 4.71 µM)	–
CO[C@H]1/C=C/O[C@@]2(C)Oc3c(C)c(O)c4c(c3C2=O)C(=O)C=C(NC(=O)/C(C)=C\C=C\[C@H](C)[C@H](O)[C@@H](C)[C@@H](O)[C@@H](C)[C@H](OC(C)=O)[C@@H]1C)C4=O [Rifamycin S]	12.5 (≈ 18 µM)	–
CC1(C)S[C@@H]2[C@H](NC(=O)Cc3ccccc3)C(=O)N2[C@H]1C(=O)O [Penicillin]	> 350	–
NC[C@@H]1O[C@H](O[C@H]2[C@@H](O)[C@H](O[C@@H]3[C@@H](O)[C@H](N)C[C@H](N)[C@H]3O[C@H]3O[C@H](CN)[C@@H](O)[C@H](O)[C@H]3N)O[C@@H]2CO)[C@H](N)[C@@H](O)[C@@H]1O [Neomycin]	7.5 (≈ 12.2 µM)	–
C. glutamicum Mca (mycothiol S-conjugate amidase; His6-Mca) (Corynebacterium glutamicum ATCC 13032)	–	Km [2]: 92.30 ± 1.5 mM; kcat [2]: 3.56 ± 0.9 s⁻¹; kcat/Km [2]: 38.5 ± 9.6 M⁻¹ s⁻¹
CC[C@H]1OC(=O)[C@H](C)[C@@H](O[C@H]2C[C@@](C)(OC)[C@@H](O)[C@H](C)O2)[C@H](C)[C@@H](O[C@@H]2O[C@H](C)C[C@H](N(C)C)[C@H]2O)[C@](C)(O)C[C@@H](C)C(=O)[C@H](C)[C@@H](O)[C@]1(C)O [Erythromycin]	25 (≈ 34.1 µM)	–
CCC[C@@H]1C[C@@H](C(=O)N[C@@H]([C@H]2O[C@H](SC)[C@H](O)[C@@H](O)[C@H]2O)[C@@H](C)O)N(C)C1 [Lincomycin]	62.5 (≈ 154 µM)	–
CN[C@@H]1[C@H](O[C@H]2[C@H](O[C@H]3[C@H](O)[C@@H](O)[C@H](N=C(N)N)[C@@H](O)[C@@H]3N=C(N)N)O[C@@H](C)[C@]2(O)C=O)O[C@@H](CO)[C@H](O)[C@H]1O [Streptomycin]	–	MIC (µg ml^−1) / WT(pXMJ19) ([1]; inhibitor): 1.25 ug/mL
CN(C)[C@@H]1C(O)=C(C(N)=O)C(=O)[C@@]2(O)C(O)=C3C(=O)c4c(O)cccc4[C@@](C)(O)[C@H]3C[C@@H]12 [Tetracycline]	3.12 (≈ 7.03 µM)	–
